Results from PubChem BioAssay (NCI).
Values joined by “and” are separate entries in the source; they are usually repeats but may differ in a detail not shown here. Equal entries are not always repeated.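 Five concentrations, 48 hours, 96-well plates. GI50 marks 50% less growth. TGI: concentration producing complete growth inhibition.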

system: MALME-3M melanoma; experiment: NCI tumour cell line growth inhibition, 48 h

Compound | TGI [µM]
Fc1ccc(NC(=S)SCc2ccc3c(c2)OCO3)cc1F | 76.3

system: PC-3 prostate; experiment: NCI tumour cell line growth inhibition, 48 h

Compound | TGI [µM] | GI50 [µM]
O=C(Nc1ccccc1)c1c(O)[nH]c(=S)[nH]c1=O | 85.2 | –
OC1CSSC1Cn1cnc2c(Nc3ccc(OCc4cccc(F)c4)c(Cl)c3)ncnc21 (stereo not drawn) | 1.87 | 0.749
COc1cnc2c(c1)C(=O)c1c-2n(CCCN2CCOCC2)c(=O)c2cc(F)ccc12 | > 100 | 0.369
COc1cccc(-c2cc(-c3cccc(NS(C)(=O)=O)c3)nc(N)c2C#N)c1O | > 100 | 0.111
NC(N)=NS(=O)(=O)c1ccc(Nc2c3ccccc3nc3c(C(=O)NCCO)cccc23)cc1 | – | 22.2
COc1cccc(C2c3cc4c(cc3OC(C)(N3CCCC3)C2C)OCO4)c1O (stereo not drawn) | > 43.5 | –
COc1cc(/C=N\NC(=O)CN2CCN(c3cc4c(cc3F)c(=O)c(C(=O)N/N=C/c3cc(OC)c(OC)c(OC)c3)cn4C3CC3)CC2)cc(OC)c1OC | 0.656 | 0.244
OCCN(CCO)c1ncnc2c1ncn2Cc1ccc(CCl)cc1 | 33.7 | 14
Cc1ccc2c(C)c3c(ccc4ccccc43)c[n+]2c1 | 41 | 7.15
Cc1ccc(CN2CCC(C(=O)Nc3ccc(-c4cc5ccccc5[nH]4)cc3)CC2)o1 | > 100 | > 100
C=CC(=O)Nc1cc(Nc2ncc(C(=O)OC(C)C)c(-c3cn(C)c4ccccc34)n2)c(OC)cc1N(C)CCN(C)C | 9.54 | 3.19
O=C(Nc1ccc(F)cc1)Nc1ccc(Cl)c([N+](=O)[O-])c1 | 11.1 | 1.6
Fc1[nH]nc2ccc([C@@H]3Nc4ccc5[nH]ncc5c4[C@H]4C5CCC(C5)[C@@H]34)cc12 (stereo partly drawn) | 13.6 | 1.12
Nc1ccccc1C#C/C=C\C#Cc1ccccc1OC(F)(F)F | > 100 | 5.98
Cc1ccc(NC(=O)Nc2ccc(-c3cccnc3)cc2N2CCC(CO)CC2)cc1 | > 100 | 5.6
Cc1cnc(NCCCN(C)C)c2c1[nH]c1ccc3cc(O)ccc3c12 | 2.21 | –
Fc1ccc(NC(=S)SCc2ccc3c(c2)OCO3)cc1F | 76.6 | –

system: SK-MEL-28 melanoma; experiment: NCI tumour cell line growth inhibition, 48 h

Compound | GI50 [µM] | TGI
O=C(Nc1ccccc1)c1c(O)[nH]c(=S)[nH]c1=O | 127 | 124 µM and > 250 µM
OC1CSSC1Cn1cnc2c(Nc3ccc(OCc4cccc(F)c4)c(Cl)c3)ncnc21 (stereo not drawn) | 0.591 | 4.64 µM
COc1cnc2c(c1)C(=O)c1c-2n(CCCN2CCOCC2)c(=O)c2cc(F)ccc12 | 1.2 | > 100 µM
COc1cccc(-c2cc(-c3cccc(NS(C)(=O)=O)c3)nc(N)c2C#N)c1O | 0.571 | > 100 µM
NC(N)=NS(=O)(=O)c1ccc(Nc2c3ccccc3nc3c(C(=O)NCCO)cccc23)cc1 | 20.3 | –
COc1cccc(C2c3cc4c(cc3OC(C)(N3CCCC3)C2C)OCO4)c1O (stereo not drawn) | – | > 100 µM
COc1cc(/C=N\NC(=O)CN2CCN(c3cc4c(cc3F)c(=O)c(C(=O)N/N=C/c3cc(OC)c(OC)c(OC)c3)cn4C3CC3)CC2)cc(OC)c1OC | 0.359 | > 19.8 µM
OCCN(CCO)c1ncnc2c1ncn2Cc1ccc(CCl)cc1 | 23.8 | 63.8 µM
Cc1ccc2c(C)c3c(ccc4ccccc43)c[n+]2c1 | 4.68 | 18.4 µM
Cc1ccc(CN2CCC(C(=O)Nc3ccc(-c4cc5ccccc5[nH]4)cc3)CC2)o1 | 88.9 | > 100 µM
C=CC(=O)Nc1cc(Nc2ncc(C(=O)OC(C)C)c(-c3cn(C)c4ccccc34)n2)c(OC)cc1N(C)CCN(C)C | 2.43 | 6.55 µM
O=C(Nc1ccc(F)cc1)Nc1ccc(Cl)c([N+](=O)[O-])c1 | 3.77 | 14.2 µM
Fc1[nH]nc2ccc([C@@H]3Nc4ccc5[nH]ncc5c4[C@H]4C5CCC(C5)[C@@H]34)cc12 (stereo partly drawn) | 1.54 | 16.2 µM
Nc1ccccc1C#C/C=C\C#Cc1ccccc1OC(F)(F)F | 7.55 | 36.8 µM
Cc1ccc(NC(=O)Nc2ccc(-c3cccnc3)cc2N2CCC(CO)CC2)cc1 | 1.49 | 5.42 µM
Cc1cnc(NCCCN(C)C)c2c1[nH]c1ccc3cc(O)ccc3c12 | – | 2.86 µM
Fc1ccc(NC(=S)SCc2ccc3c(c2)OCO3)cc1F | – | 13 µM

system: SNB-75 CNS; experiment: NCI tumour cell line growth inhibition, 48 h

Compound | TGI [µM] | GI50 [µM]
O=C(Nc1ccccc1)c1c(O)[nH]c(=S)[nH]c1=O | 91.9 | –
OC1CSSC1Cn1cnc2c(Nc3ccc(OCc4cccc(F)c4)c(Cl)c3)ncnc21 (stereo not drawn) | 8.8 | 4.16
COc1cnc2c(c1)C(=O)c1c-2n(CCCN2CCOCC2)c(=O)c2cc(F)ccc12 | 9.7 | 0.362
COc1cccc(-c2cc(-c3cccc(NS(C)(=O)=O)c3)nc(N)c2C#N)c1O | 5.15 | 0.0797
NC(N)=NS(=O)(=O)c1ccc(Nc2c3ccccc3nc3c(C(=O)NCCO)cccc23)cc1 | 55.2 | –
COc1cccc(C2c3cc4c(cc3OC(C)(N3CCCC3)C2C)OCO4)c1O (stereo not drawn) | 17.2 | –
COc1cc(/C=N\NC(=O)CN2CCN(c3cc4c(cc3F)c(=O)c(C(=O)N/N=C/c3cc(OC)c(OC)c(OC)c3)cn4C3CC3)CC2)cc(OC)c1OC | 2.12 | 0.53
OCCN(CCO)c1ncnc2c1ncn2Cc1ccc(CCl)cc1 | 40.9 | 20.3
